US20200038413A1, “METHODS OF TREATING PARKINSON'S DISEASE USING AMINOSTEROL COMPOSITIONS” (Enterin, Inc., priority 2018, published 2020)
Values joined by “and” are separate entries in the source; they are usually repeats but may differ in a detail not shown here. Equal entries are not always repeated.

Assays:
[1] = tested on: patients with PD and constipation; assay: Phase 2 trial Stage 2: CNS symptoms (UPDRS, MMSE, PDHQ, BDI-II, sleep diary); assay type: in vivo, human
Excerpt: Exploratory end-points, in addition to constipation, included for example, (i) depression assessed using the Beck Depression Inventory (BDI-II) (Steer et al. 2000) and Unified Parkinson's Disease Rating Scale (UPDRS); (ii) cognition assessed using the Mini Mental State Examination (MMSE) (Palsteia et al. 2018), Unified Parkinson's Disease Rating Scale (UPDRS), and Trail Making Test (TMT); (iii) sleep and REM-behavior disorder (RBD) using a daily sleep diary, I-Button Temperature Assessment, a REM sleep behavior disorder (RBD) questionnaire (RBDQ) (Stiasny-Kolster et al. 2007), and the UPDRS; (iv) hallucinations assessed using the PD hallucinations questionnaire (PDHQ) (Papapetropoulos et al. 2008), the UPDRS, and direct questioning; (v) fatigue using the Parkinson's Disease Fatigue Scale (PFS-16) and the UPDRS; (vi) motor functions using the UPDRS; and (vii) non-motor functions using the UPDRS.
Assessments were made at baseline and at the end of the fixed dose and washout periods. Circadian system status was evaluated by continuously monitoring wrist skin temperature (Thermochron iButton DS1921H; Maxim, Dallas) following published procedures (Sarabia et al. 2008).
CNS Symptoms in Stage 2: An exploratory analysis was done with respect to the sleep data, the body temperature data, mood, fatigue, hallucinations, cognition and other motor and non-motor symptoms of PD. Continuous measurements within a subject were compared with a paired t-test and continuous measurements between subject groups were compared with a two-group t-test. Categorical data were compared with a chi-squared test or a Fisher's exact test if the expected cell counts are too small for a chi-squared test.

[2] = Preclinical oral studies in rats; assay type: in vivo
[3] = Phase 2 trial: pharmacokinetics of orally administered squalamine (ENT-01); assay type: in vivo; conditions: human, based on PK of intravenously administered squalamine in prior clinical studies
Protocol: Pharmakokinetics: PK data were collected on the 10 patients enrolled in Stage 1 and 10 patients enrolled in Stage 2 to determine the extent of systemic absorption. In Stage 1, PK data were obtained at each visit, pre-medication, at 1, 2, 4, 8 and 24 hours (Table 10). In Stage 2, PK was measured on days 1 and 6 of the randomization period pre-medication, at 1, 2, 4 and 8 hours (Table 11).
The mean Cmax, Tmax and T1/2 and AUC of the squalamine ion following squalamine (ENT-01) oral dosing for Stage 1 patients. The PK analyses are only approximate, as the lower limit of the validated concentration range was 10 ng/ml; most of the measured concentrations fell below that value. The mean Cmax, Tmax and T1/2 and AUC of the squalamine ion following squalamine (ENT-01) oral dosing for Stage 2 patients. The PK analyses are only approximate, as the lower limit of the validated concentration range was 0.5 ng/ml.

Solubility in water = assay type: physicochemical; conditions: pH<3.5 (the pH of gastric fluid)
[4] = tested on: patients with PD and constipation; assay: Phase 2 trial Stage 2: daily oral dosing, bowel function / stool related indices; assay type: in vivo, human
Protocol: Following successful screening, all subjects underwent a 14-day run-in period where the degree of constipation was assessed through a validated daily log (Zinsmeister et al. 2013) establishing baseline CSBMs/week. Subjects with an average of <3 CSBMs/week proceeded to dosing.
In Stage 2, 34 patients were evaluated.
The primary efficacy outcome variable was whether or not a subject was a “success” or “failure”. This is an endpoint based on subject diary entries for the “fixed dose” period prior to the endpoint assessment defined as average complete stool frequency increase by 1 or more over baseline, or 3 or more complete spontaneous stools/week. The subject was deemed a “success” if s/he met one or more of the criteria listed above, otherwise the subject was deemed a “failure”. The primary analysis was based on all subjects with a baseline assessment and an assessment at the end of the “fixed-dose” period and was a comparison of the proportion of successes with 0.10 (the null hypothesis corresponding to no treatment effect).

With `CC(C)[C@@H](CC[C@@H](C)[C@H]1CC[C@H]2[C@@H]3[C@H](O)C[C@H]4C[C@@H](NCCCNCCCCN)CC[C@]4(C)[C@H]3CC[C@]12C)OS(=O)(=O)O` (single isomer, unassigned) [squalamine (ENT-01), squalamine] the “increase in total sleep time” value ([1]; 250 mg vs baseline) was 18%, the “hallucinations and delusions improved or disappeared” value ([1]; during treatment, patients with hallucinations (5) or delusions (1) at baseline) was 5 of 6 and the “improvement in frequency of arm or leg thrashing” value ([1]; maximal dose vs baseline) was 100%. The “improvement in UPDRS Part 1” value ([1]; wash-out vs baseline) was ~20% and 18%, the tolerability ([2]; oral) was “well tolerated” and the oral bioavailability ([2]; preclinical studies) was “about 0.1%”. For the same molecule, the “oral bio-availability (estimated)” value [3] was “less than 0.3%”, the solubility in water (Solubility in water) was “readily dissolves” and the CSBM ([4]; Stage 2, wash-out, mean (SD), baseline 1.2 (0.90)) was 1.8 (1.19). The SBM ([4]; Stage 2, wash-out, mean (SD), baseline 2.6 (1.45)) was 3.2 (1.80), the “response rate (CSBM within 24 hours on at least 2 of 3 days)” value ([4]; Stage 2 daily dosing, 75 mg) was 26% and the “decrease in use of rescue medication” value ([4]; fixed dose vs baseline) was 83%. For the same molecule, the “improvement in SBM” value ([4]; fixed dose vs baseline) was 73%, the “improvement in consistency (Bristol stool scale)” value ([4]; fixed dose vs baseline) was 52% and the “improvement in ease of passage” value ([4]; fixed dose vs baseline) was 16%.
